Results on one molecule are retold here after publication PMC6804459 (Acta Pharmaceutica Sinica. B, 2019).

pKd: −log10 of the molar value.

For the test, the target named is recombinant human PrP (rhPrP, PrP^C) (Homo sapiens, UniProt P04156). Description: biochemical. Format: binding.

On to `Cc1cc(Nc2ccc(NC(=O)c3ccc(Nc4ccnc5ccccc45)cc3)cc2)nc(N)n1` [SGI-1027], for which the pKd is 5.79.

For orientation: pKd means the negative decadic logarithm of the Kd, by convention in mol/L.
